Experimental data: patent US4565817A, “Theophyllinyl-alkyl-oxadiazoles, process for the preparation thereof and pharmaceutical compositions containing same” (Chinoin Gyogyszer-es Vegyeszeti Termekek Gyara R.T., priority 1982, dated 1986)

Key:
guinea pigs = assay: Cough relieving against 15% citric acid spray in guinea pigs, one hour after administration; type: in vivo; conditions: Cavia porcellus, im, 1 h, one hour after 50 mg/kg i.m., % related to the control, read-out: Cough inhibition Q %
Method: Q = Cough relieving induced by 15% citric acid spray in guinea pigs one
hour after administration of the substances (50 mg/kg, i.m.) expressed in
% related to the control.

in vivo = conditions: mouse
[1] = tested on: rat paw carrageenin oedema; assay: Rat paw carrageenin oedema test; type: in vivo; conditions: i.m. administration, compared with indomethacin
Description: Another special group of the compounds according to the invention are the compounds having an alkyl amino group in place of R1. […] This activity is important in cough relieving accompanied by inflammation in the respiration system.

[2] = General pharmacological activity (cough relieving, bronchodilatory, antiasthmatic, antiinflammatory); conditions: in vivo
[3] = tested on: trachea stria isolated from rabbit; assay: Bronchial spasm induced by histamine, in vitro on isolated trachea stria
Description: (§1) A special group of the compounds of the formula I are those compounds in which R1 stands for alkyl, aralkyl, or aryl. […] Path. […] This activity is significant in relieving cough of the asthmatic type.

guinea pig = assay: Bronchial spasm induced by histamine, in vivo according to Konzett and Rossler
Description: as §1

[4] = tested on: spasm caused by acetyl choline or serotonine; assay: Spasm caused by acetyl choline or serotonine
Description: as §1

CC(C)NCCc1nc(CCn2cnc3c2c(=O)n(C)c(=O)n3C)no1 [(CH2)2 (CH2)2 NHi.Pr] showed an inhibition in vivo at 50 mg/kg (guinea pigs) of 54.7%, an LD50 (in vivo; iv) of 200 mg/kg and an LD50 (in vivo; po) of 1750 mg/kg.
With Cn1c(=O)c2c(ncn2CCCc2noc(CCN3CCOCC3)n2)n(C)c1=O the inhibition in vivo at 50 mg/kg (guinea pigs) was 47.7%, the LD50 (in vivo; iv) was 220 mg/kg and the LD50 (in vivo; po) was 1900 mg/kg.
For COc1ccc2c3c1O[C@H]1[C@@H](O)C=C[C@H]4[C@@H](C2)N(C)CC[C@@]341 [Codeine, reference compound], the inhibition in vivo at 50 mg/kg (guinea pigs) was 50% and the LD50 (in vivo; iv) was 54 mg/kg.
Cn1c(=O)c2c(ncn2Cc2noc(CCN3CCCCC3)n2)n(C)c1=O gave an inhibition in vivo at 50 mg/kg (guinea pigs) of 54.1%, an LD50 (in vivo; iv) of 240 mg/kg and an LD50 (in vivo; po) of 1550 mg/kg.
CN1CCN(CCc2nc(Cn3cnc4c3c(=O)n(C)c(=O)n4C)no2)CC1 showed an inhibition in vivo at 50 mg/kg (guinea pigs) of 54.5%, an LD50 (in vivo; iv) of 224 mg/kg and an LD50 (in vivo; po) of 1670 mg/kg.
In the case of Cn1c(=O)c2c(ncn2CCc2noc(CCN3CCOCC3)n2)n(C)c1=O, the inhibition in vivo at 50 mg/kg (guinea pigs) is reported as 48.6%, the LD50 (in vivo; iv) is reported as 217 mg/kg and the LD50 (in vivo; po) is reported as 2600 mg/kg.
Compound CCCc1nc(Cn2cnc3c2c(=O)n(C)c(=O)n3C)no1 [Example 18] has an inhibition in vivo at 50 mg/kg (guinea pigs) of 51.1%, an LD50 (in vivo; iv) of 390 mg/kg and an LD50 (in vivo; po) of 1400 mg/kg.
In the case of CCN(CC)CCc1nc(Cn2cnc3c2c(=O)n(C)c(=O)n3C)no1 [Example 4, 7-[{5-(2-diethylamino-ethan-1-yl)-1,2,4-oxadiazol-3-yl}-methyl]-theophylline], the inhibition in vivo at 50 mg/kg (guinea pigs) is reported as 56.7%, the anti-inflammatory activity [1] is reported as “strong (comparable with indomethacin) anti-inflammatory activity” and the “pharmacological activity in words” value [2] is reported as “cough relieving and bronchodilatory activity”. For the same compound, the LD50 (in vivo; iv) was 215 mg/kg and the LD50 (in vivo; po) was 1400 mg/kg.
With c1ccc(C(Cc2noc(CCN3CCCCC3)n2)c2ccccc2)cc1 [Prenoxdiazine, reference compound] the inhibition in vivo at 50 mg/kg (guinea pigs) was 44.5%, the LD50 (in vivo; iv) was 34 mg/kg and the LD50 (in vivo; po) was 920 mg/kg.
In the case of Cc1nc(Cn2cnc3c2c(=O)n(C)c(=O)n3C)no1 [Example 1, 7-[(5-methyl-1,2,4-oxadiazol-3-yl)-methyl]-theophylline], the inhibition in vivo at 50 mg/kg (guinea pigs) is reported as 54.3%, the “bronchial spasm induced by histamine (in vitro)” value [3] is reported as “decreases the bronchial spasm induced by histamine” and the duration of activity (guinea pig; histamine-induced bronchial spasm, compared with theophylline ethylene diamine) is reported as “considerably longer than in case of theophylline ethylene diamine”. For the same compound, the “bronchial spasm induced by histamine (in vivo)” value (guinea pig; in vivo, guinea pig, Konzett and Rossler, histamine) was “decreases the bronchial spasm induced by histamine”, the “spasm caused by acetyl choline” value ([4]; acetyl choline) was “prevents the spasm caused by acetyl choline or serotonine” and the “spasm caused by serotonine” value ([4]; serotonine) was “prevents the spasm caused by acetyl choline or serotonine”.
CCN(CC)CCc1nc(CCCn2cnc3c2c(=O)n(C)c(=O)n3C)no1 [Example 12, 7-[3-5-(2-diethylamino-ethan-1-yl)-1,2,4-oxadiazol-3-yl-propan-1-yl]-theophylline-maleinate] showed an inhibition in vivo at 50 mg/kg (guinea pigs) of 51.5%, an LD50 (in vivo; iv) of 237 mg/kg and an LD50 (in vivo; po) of 2250 mg/kg.
For CN1CCN(CCc2nc(CC(O)Cn3cnc4c3c(=O)n(C)c(=O)n4C)no2)CC1 (stereo not shown), the inhibition in vivo at 50 mg/kg (guinea pigs) was 48.6%, the LD50 (in vivo; iv) was 215 mg/kg and the LD50 (in vivo; po) was 1800 mg/kg.
In the case of Cn1c(=O)c2c(ncn2Cc2noc(CCN3CCOCC3)n2)n(C)c1=O, the inhibition in vivo at 50 mg/kg (guinea pigs) is reported as 55.4%, the LD50 (in vivo; iv) is reported as 230 mg/kg and the LD50 (in vivo; po) is reported as 1530 mg/kg.
